Measurements taken from patent US10046038B2, “Leptospira with increased antigenic mass” (priority 2012, dated 2018).
Like-named read-outs stand apart in the source and are kept apart here.

Columns and labels:
Leptospira = conditions: most serogroups other than Canicola; alpha or gamma isomer
[1] = tested on: Leptospira serogroup Icterohaemorrhagiae; assay: Antigenic mass of fermenter culture by antigen Elisa; assay type: cell-based, L. interrogans (sensu lato); conditions: for relative Ag. mass (%): non-supplemented = 100
Experimental: A working seed of a strain of L. interrogans was inoculated into EMJH medium and incubated at 29° C. for 3 to 5 days. If needed up to 5 consecutive pre-culture passages could be made, whereby the pre-cultures were visually inspected for sufficient proliferation (turbidity) as criterion for transfer to the next passage.
(§1) All experiments were performed in 0.5, 2 or 20 L working volume, computer-controlled fermenters (Sartorius), which were filled with 0.5, 1 or 10 L sterile-filtered EMJH medium, respectively. The standard EMJH medium contained 1% w/v BSA and 0.125% w/v polysorbate 80. The pH of the medium was 7.4 ±0.1 at start. The fermenter was inoculated with 5% v/v serogroup lcterohaemorrhagiae pre-culture (passage 5), giving an inoculation density of 2-4×10^7 cells/ml at day 0.
(§2) During all fermentation experiments the temperature was controlled at about 29° C. The medium was aerated with headspace airflow, and the dissolved oxygen (pO2) concentration was controlled by automatic variation of the agitation-rate, to maintain a set pO2 concentration. Temperature, pH and pO2 concentration were monitored online, but pH and foam formation were not controlled.
In comparative experiments up to 4 fermenters were run in parallel, which started off simultaneously with the same medium and Leptospira inoculum. One fermenter then usually contained only standard EMJH medium and served as reference, while in the others different supplementations of polyunsaturated C18 fatty acid were made.
(§3) Supplementation was done either with pure linoleic acid (Sigma Aldrich, >99% pure) as a 10% v/v stock in absolute ethanol (JT Baker). Alternatively, linoleic acid was supplemented by using a BSA that was created with a high level of linoleic acid (high LA BSA). This high LA BSA was used either to replace a standard BSA in EMJH medium, or was used in addition to BSA in the EMJH medium, in which case it was added as a 25% w/v stock solution in sterile water. The high LA BSA or the pure linoleic acid/ethanol supplements were fed to a fermenter over the course of 4 hours, at 0.1-0.2 ml/hour, until the fermenter culture had received a desired total amount of linoleic acid. Different total available levels of linoleic acid have been tested, of between about 5 and 425 μg/ml in the total volume. The fermenter cultures of Leptospira were supplemented at different cell-densities i.e. at early-, mid- or end phase culture.
(§4) Daily 5 ml samples were taken aseptically, directly from the fermenter, for analyses of total cell count (by Petroff-Hausser counting chamber); antigenic mass (by antigen amount Elisa); inactivated cells; and for profiling of the fatty acid type and-relative amounts (by gas chromatography) in the culture medium.
(§5) Samples were inactivated with 0.1 or 0.2% v/v BPL, at 29° C. for 16-24 hours. The inactivated Leptospira were tested in an antigen Elisa within 24 hours.
(§6) For a reference see: R. A. Hartskeerl et al., (International course on laboratory methods for the diagnosis of Leptospirosis, 4th Edition, 1 Apr. 2004. Royal Tropical Institute, Amsterdam).
(§7) The Elisa's were set up as capture assays, whereby the same moab was used for coating and for detection.
A reference standard was prepared for each Leptospira strain that was tested by antigen Elisa. The standard is a batch of monovalent Leptospira antigen, from inactivated cells. This was prepared using common techniques, essentially by proliferating a specific strain of Leptospira in EMJH medium as described above, and was inactivated as described before.

[2] = tested on: Leptospira serogroup Grippotyphosa; assay type: cell-based, L. interrogans (sensu lato); conditions: supplementation with linoleic acid; days 4 and 5
[3] = tested on: Leptospira serogroup Australis (serovar Bratislava); assay type: cell-based, L. interrogans (sensu lato); conditions: linoleic acid supplementation of low LA BSA medium
[4] = tested on: Leptospira serogroup Tarassovi; assay type: cell-based, L. interrogans (sensu lato); conditions: EMJH standard BSA, vs unsupplemented reference culture
Experimental: as §1, §3, §4, §5, §6, §7
A reference standard was prepared for each Leptospira strain that was tested by antigen Elisa. The standard is a batch of monovalent Leptospira antigen, from inactivated cells. This was prepared using common techniques, essentially by proliferating a specific strain of Leptospira in EMJH medium as described above, and was inactivated as described before. Next the standard was concentrated and/or diluted in phosphate buffered saline, to contain about 1×10^9 cells/ml. An arbitrary number of antigen units was affixed to the sample, for example: 1000 Units/ml. When the standard needed replenishing, a subsequent preparation of the same standard, was compared and titrated alongside the old standard several times, before replacing it.
As before, the average antigenic mass score by Elisa was calculated per 1×10^9 cells (pre-inactivation). […] The average antigenic mass 1×10^9 cells of the reference culture was set at 0% increase.
Both alpha-and gamma C18:3 were purchased as pure chemicals (>98%).

[5] = tested on: Leptospira serogroup Icterohaemorrhagiae; assay: Biomass (total cell count) and toxicity in fermenter culture; assay type: cell-based, L. interrogans (sensu lato); conditions: additional 400 μg/ml pure linoleic acid in ethanol; EMJH with high LA BSA
Experimental: as §2

[6] = tested on: Leptospira serogroup Tarassovi; assay: Biomass and toxicity in fermenter culture; assay type: cell-based, L. interrogans (sensu lato); conditions: 300 μg/ml C18:2; EMJH standard BSA
Experimental: In a supplementation similar to that described in Example 6 above, the effect of supplementation with different amounts of C18:2 fatty acid on the biomass and the antigenic mass of a culture of Leptospira serogroup Tarassovi in EMJH medium with standard BSA was tested.

## CC/C=C\C/C=C\C/C=C\CCCCCCCC(=O)O [C18:3, Linolenic acid]
Leptospira
  supplementation level showing cytotoxicity: ≥ 200 µg/mL

## CCCCCC=CCC=CCCCCCCCC(=O)O [linoleic acid, 9, 12-octadecadienoic acid]
[1]; 100 μg/ml added at 1 × 10^8 cells/ml, total 105 μg/ml, average of days 4-5
  Ag. mass, Ag U/10^9 cells/ml: 1783 Ag U/10^9 cells/ml
[1]; 100 μg/ml added at 1 × 10^8 cells/ml, average of days 4-5
  relative Ag. mass (%): 226%
[1]; 100 μg/ml added at 5 × 10^8 cells/ml, total 105 μg/ml, average of days 4-5
  Ag. mass, Ag U/10^9 cells/ml: 1564 Ag U/10^9 cells/ml
[1]; 100 μg/ml added at 5 × 10^8 cells/ml, average of days 4-5
  relative Ag. mass (%): 198%
[1]; 100 μg/ml added at 9 × 10^8 cells/ml, total 105 μg/ml, average of days 4-5
  Ag. mass, Ag U/10^9 cells/ml: 1656 Ag U/10^9 cells/ml
[1]; 100 μg/ml added at 9 × 10^8 cells/ml, average of days 4-5
  relative Ag. mass (%): 210%
[1]; 100 μg/ml pure linoleic acid in ethanol added on day 2 (mid-exponential) to EMJH with high LA BSA, average of days 3-5
  antigenic mass: 1767 Ag. U/1×10^9 cells
[1]; 100 μg/ml single fatty acid, FIGS. 37 and 38
  increase in relative antigenic mass: 77%
[1]; 25 instead of 5 μg/ml linoleic acid available
  increase of antigenic mass: 124%
[1]; additional 200 μg/ml pure linoleic acid, EMJH with high LA BSA
  increase of the antigenic mass (in words): slightly less increase of the antigenic mass compared to that of the 100 μg/ml group
[1]; supplem. pure C18:2 75 μg/ml, total 80 μg/ml, EMJH standard BSA, average of days 3-5
  Ag. mass, Ag U/10^9 cells/ml: 1450 Ag U/10^9 cells/ml
[1]; supplem. pure C18:2 75 μg/ml, total 80 μg/ml, average of days 3-5
  relative Ag. mass (%): 199%
[1]; supplem. pure C18:2 150 μg/ml, total 155 μg/ml, EMJH standard BSA, average of days 3-5
  Ag. mass, Ag U/10^9 cells/ml: 1550 Ag U/10^9 cells/ml
[1]; supplem. pure C18:2 150 μg/ml, total 155 μg/ml, average of days 3-5
  relative Ag. mass (%): 213%
[2]
  increase in the antigenic mass: 63%
[3]
  increase in antigenic mass: 45%
[4]; 100 μg/ml C18:2
  increase in antigenic mass per unit of biomass: 67%
[4]; 200 μg/ml C18:2
  increase in antigenic mass per unit of biomass: 99%
[5]
  toxicity for the bacteria (cell numbers after supplementation): induced toxicity
[6]
  toxicity to the culture: toxic
